Data published in US20240307339A1, “NOVEL COMPOUNDS FOR THE TREATMENT AND PREVENTION OF NEUROLOGICAL COMPLICATIONS OF VIRAL INFECTIONS” (Sunregen Healthcare AG, priority 2021, published 2024).

Legend:
[1] = tested on: YHB1 (yeast homologue of neuroglobin) mRNA; test: RNAseq of yeast cells treated with tripentadecanoin; type: cell-based, Saccharomyces cerevisiae
Procedure: (§1) Potential targets of the compound of formula (I) were identified by using RNAseq. The yeast cells (Saccharomyces cerevisiae) were treated with tripentadecanoin (30 μM) for 5 hours and the mRNA abundance of all genes in cells that were treated with the compound or vehicle only for 5 hours was quantitatively monitored. Samples in triplicate were processed by the company Genewiz. […] Among these hits is Yhb1, a flavohemoglobin that plays a role in nitrosative stress response (FIG. 4A). Following the results from the RNAseq survey, PH084, YHB1 or VTC4 were knocked out and the proportion of old cells with an Hsp104-GFP focus was measured, as before. While pho84Δ cells were similar to wild type cells, much more vtc4Δ and yhb1Δ mutant cells contained an age-induced deposit (FIG. 4A).

[2] = tested on: NMU-induced photoreceptor degeneration (retina); test: murine model of N-nitroso-N-methylurea (NMU) photoreceptor degeneration; type: in vivo, C57BL/6J mice; settings: for outer nuclear layer (ONL) area under the curve (AUC -1.75 to +1.75 μm): H&E histology; for number of rows of photoreceptor nuclei: mid-peripheral region
Procedure: Eighteen 8-12-week-old female C57BL/6J mice were randomized into three groups: 1) NMU+vehicle; 2) NMU+Tripentadecanoin 20 mg/kg; 3) NMU+Tripentadecanoin 50 mg/kg. NMU at a dose of 50 mg/kg was injected i.p. to all mice; Tripentadecanoin (or vehicle) was administered daily via oral gavage starting 3 days before NMU and continuing until 7 days after NMU challenge. Retina were imaged by spectral domain optical coherence tomography (OCT) 5 days before exposing to NMU and 7 days after NMU. All eyes were collected and processed for histological hematoxylin and eosin (H&E) staining. The thicknesses of photoreceptors were measured from different locations on OCT images and H&E slides, respectively. Photoreceptor thickness on H&E slides were quantified using automated Leica software (Leica, Heerbrugg), operated by a single masked observer. Results were expressed as the outer nuclear layer (ONL) area under the curve (AUC −1.75 to +1.75 μm) and number of rows of photoreceptor nuclei.

[3] = tested on: Mouse hepatitis virus (MHV); test: mouse model of coronavirus infection (MHV infected mice); type: in vivo, C57BL/6J male mice; settings: vs vehicle; for clinical score / clinical severity of virus induced neuropathology: 50 mg/kg, treatment started 3 days after virus infection till Day 21, P<0.05 on days 9, 10 or 14
Procedure: Tripentadecanoin was tested in a mouse model of coronavirus infection. The objective of this study was to investigate tripentadecanoin's therapeutic effects in MHV infected mice. Mouse hepatitis virus (MHV) causes acute infections of the murine liver and lungs and persistent infections of the gastrointestinal tract and central nervous system (CNS). […] This virus was named JHM virus (JHMV) and subsequently shown to be a coronavirus, related to other MHV strains (Bergmann, C., Lane, T. & Stohlman, S. Coronavirus infection of the central nervous system: host-virus stand-off. Nat Rev Microbiol 2006; 4:121-132.). JMHV is now broadly used to study virus-induced neurological diseases, particularly demyelination. It is considered to be a suitable model for coronavirus-induced neurological complication. CNS infection with MHV provides an animal model for acute viral-induced encephalomyelitis and the human demyelinating disease, multiple sclerosis. MHV-induced demyelinating disease is typified by mice, which control viral replication, but fail to fully clear virus. Acute infection induces CNS inflammation and initiates the demyelinating process. Animals that fail to control virus replication in a sufficiently rapid manner succumb to encephalomyelitis within 5-10 days. Survivors of acute infection typically eliminate infectious virus within two weeks. However, these animals still fail to achieve sterile immunity as evidenced by the persisting viral antigen (Ag) and RNA within the CNS. MHV persistence is associated with chronic CNS inflammation and ongoing primary demyelination.
20 C57BL/6J male mice of at 5 weeks of age were randomized into 2 groups of vehicle control or tripentadecanoin 50 mg/kg. Tripentadecanoin or vehicle control treatment was started 3 days after virus infection for a total of 19 days till Day 21. Clinical score of MHV infected mice was rated as: 0—asymptomatic; 1—limp tail; 2—wobbly gait with righting difficulty; 3—hind limb weakness and extreme righting difficulty; 4—hind limb paralysis; 5—moribund.

[4] = tested on: Hsp104-GFP age-induced protein deposit; test: Hsp104-GFP age-induced protein deposit in old yeast cells (replicative ageing); type: cell-based, Saccharomyces cerevisiae; settings: for proportion of cells with an Hsp104-GFP focus / proportion of cells with an Hsp104-GFP focus decreased: 30 μM
From the text: While yeast populations can be propagated ad libitum, the yeast mother cell has a finite lifespan and can only produce a certain amount of daughter cells, typically 25 for laboratory backgrounds. Mortality rate increases with the number of daughter cells produced, therefore this phenomenon is termed replicative ageing. In old yeast cells, age-induced protein deposits recruit a specific set of chaperones and co-chaperones.
Hsp104 expressed endogenously as a fusion to the green fluorescent protein tag (Hsp104-GFP) forms a focus in old cells. The presence (percentage of cells with an aggregate at a certain age), number (number of foci per cell) and size (fluorescent brightness) can be assessed on hundreds of cells and thus, this gives a good model for assessing the biology of age induced aggregates.
To test if tripentadecanoin is active in yeast, cells were treated with different concentrations of the purified compound (1 μM, 10 μM and 30 μM) as well as an extract (10 μg/ml) of the plant it is derived from (Ophioglossum thermale). These cells were let to age in the presence of the compound and after 10-11 generations, cells were imaged to count their age and assess whether they contained a Hsp104-GFP age-induced protein deposit or not (FIG. 3A).
as §1

neuroglobin mRNA = test: Expression of neuroglobin in mouse primary cortical neurons (qPCR); type: cell-based, C57BL/6J mouse
Procedure: Healthy neurons preparation: primary mouse cortical neurons from embryonic day 16-17 were prepared from C57BL/6J mouse foetuses, resulting in 95-97% of neurons and 3-5% astrocytes. At DIV 5/6, mouse primary cortical neurons was treated for 3 h (T3) or 24 h (T24) with vehicle (ethanol) or increasing concentrations of tripentadecanoin (100 or 1000 nM). q PCRmethods used to amplify the mRNA of neuroglobin.
The amount and quality of RNA were evaluated using capillary electrophoresis. The complementary DNA (cDNA) was synthesized by reverse transcription of total RNA in presence of oligo(dT) and “Transcriptor reverse transcriptase” from Roche. The cDNA quantities were then adjusted before the PCRstep. The qPCRreactions were performed using the Licht Cycler system from Roche according to supplier instructions. In this experiment, Rps28 (Ribosomal protein S28) was used as a reference marker (also referred to as housekeeping gene).
The reaction mix (10 μL final) was prepared as follows: • 2.5 μL cDNA • Primers and TaqMan probe • Reagent mix containing taq DNA polymerase and MgCl2.
The following primers were used in this experiment: […]

CCCCCCCCCCCCCCC(=O)OCC(COC(=O)CCCCCCCCCCCCCC)OC(=O)CCCCCCCCCCCCCC [tripentadecanoin]
mRNAs significantly differentially expressed vs vehicle ([1]; 30 μM, 5 hours, RNAseq, triplicate): 157
expression of YHB1 ([1]; yeast cells treated with tripentadecanoin): significantly increased
outer nuclear layer (ONL) area under the curve (AUC -1.75 to +1.75 μm) ([2]; 20 mg/kg daily oral gavage, p<0.01 vs vehicle): 73.58±14.45
number of rows of photoreceptor nuclei ([2]; 20 mg/kg, p<0.01 vs vehicle): 6.4±1.2
outer nuclear layer (ONL) area under the curve (AUC -1.75 to +1.75 μm) ([2]; 50 mg/kg daily oral gavage, p<0.001 vs vehicle): 83.08±19.05
number of rows of photoreceptor nuclei ([2]; 50 mg/kg, p<0.001 vs vehicle): 7.0±1.7
neuroretinal thickness (OCT) ([2]; 50 mg/kg, peripheral (p<0.05), mid-peripheral (p<0.05) and central retina (p<0.01) vs vehicle): significantly increased
thickness of photoreceptor layers (in vivo OCT images) ([2]; OCT 7 days after NMU, vs control): increased thickness of photoreceptor layers
clinical score / clinical severity of virus induced neuropathology [3]: reducing the clinical severity of virus induced neuropathology
clinical score / clinical severity of virus induced neuropathology ([3]; listed as compound of the formula (I)): improved clinical score
weight loss of animals ([3]; mouse model of coronavirus infection): reduced weight loss of animals
cells containing a Hsp104-GFP age-induced protein deposit (focus) ([4]; 1 μM, 10 μM and 30 μM, after 10-11 generations, vs vehicle 0.3% ethanol): less likely to harbor a Hsp104-GFP focus
proportion of cells with an Hsp104-GFP focus ([4]; pho84Δ cells): decreased
proportion of cells with an Hsp104-GFP focus decreased ([4]; vtc4Δ mutant cells): this was not the case
proportion of cells with an Hsp104-GFP focus ([4]; wild type cells): decreased
aggregation of HSP-104 (GFP-HSP104 loci) ([4]; yeast cells, summary statement): greatly reduced
proportion of cells with an Hsp104-GFP focus decreased ([4]; yhb1Δ mutant cells): this was not the case
expression of neuroglobin vs vehicle control (neuroglobin mRNA; 1000 nM, 3 hours, p<0.001): significant increased expression of neuroglobin
increase in the expression level of neuroglobin (neuroglobin mRNA; mouse neurons, Example 4): approximately six-fold
